From patent publication US12171230B2, “Herbicidal compositions” (Bayer Aktiengesellschaft, priority 2018, dated 2024)

Experiments:
Assay type in all cases: in vivo
[1] = tested on: Poa annua; assay: Post-emergence herbicidal action against Poa annua
Method: When the observed efficacies exceed the formal sum total of the values of the tests with individual applications, they also exceed the expected value according to Colby, which is calculated using the formula below and is likewise regarded as an indication of synergism (cf. S. R. Colby; in Weeds 15 (1967) p. 20 to 22): E^C=A+B−([…])
Here: • A=efficacy of the active compound (A) in % at an application rate of a g a.i./ha; • B=efficacy of the active compound (B) in % at an application rate of b g a.i./ha; • E^C=expected value of the effect of the combination (A)+(B) in % at the combined application rate a+b g a.i./ha.
Seeds or rhizome pieces of mono- and dicotyledonous weeds are placed in sandy loam in pots, covered with soil and grown in a greenhouse under good growth conditions (temperature, air humidity, water supply). Three weeks after sowing, the test plants were treated at the three-leaf stage with the compositions according to the invention. The compositions according to the invention formulated as spray powders or as emulsion concentrates were sprayed onto the green plant parts in various dosages with an application rate of 300 to 800 l/ha of water (equivalent). After the test plants have been left to stand in the greenhouse under optimal growth conditions for about 3 to 4 weeks, the action of the preparations is scored visually in comparison to untreated controls. The compositions according to the invention also have good post-emergence herbicidal activity against a broad spectrum of economically important gramineous and broadleaf weeds.

[2] = tested on: Lolium rigidum; assay: Post-emergence herbicidal action against Lolium rigidum
[3] = tested on: Bromus sterilis; assay: Post-emergence herbicidal action against Bromus sterilis
[4] = tested on: Phalaris minor; assay: Post-emergence herbicidal action against Phalaris minor
[5] = tested on: Centaurea cyano; assay: Post-emergence herbicidal action against Centaurea cyano
Method: Seeds or rhizome pieces of mono- and dicotyledonous weeds are placed in sandy loam in pots, covered with soil and grown in a greenhouse under good growth conditions (temperature, air humidity, water supply). Three weeks after sowing, the test plants were treated at the three-leaf stage with the compositions according to the invention. The compositions according to the invention formulated as spray powders or as emulsion concentrates were sprayed onto the green plant parts in various dosages with an application rate of 300 to 800 l/ha of water (equivalent).

[6] = tested on: Lolium rigidum (resistant biotype); assay: Post-emergence herbicidal action against Lolium rigidum (resistant biotype)
[7] = tested on: Matricaria inodora; assay: Post-emergence herbicidal action against Matricaria inodora
[8] = tested on: Alopecurus myosuroides; assay: Post-emergence herbicidal action against Alopecurus myosuroides
[9] = tested on: Veronica hederifolia; assay: Post-emergence herbicidal action against Veronica hederifolia
Text: (§1) The following abbreviations are used in the description and the tables that follow: • g of a.i./ha=grams of active substance (active ingredient) (=100% active compound) per hectare; • The sum total of the effects of the individual applications is reported under E^A; • expected values according to Colby are each reported under E^C.
(§2) The rating period is reported in days after application (DAT).

[10] = tested on: Bromus sterilis; assay: Post-emergence herbicidal action against Bromus sterilis; remark: listed apart in the source
Text: as §1, §2

[11] = tested on: Lolium rigidum; assay: Post-emergence herbicidal action against Lolium rigidum; remark: listed apart in the source
Text: as §1, §2

[12] = tested on: Alopecurus myosuroides; assay: Post-emergence herbicidal action against Alopecurus myosuroides; remark: listed apart in the source
Text: as §1, §2

[13] = tested on: Lolium rigidum (resistant biotype); assay: Post-emergence herbicidal action against Lolium rigidum (resistant biotype); remark: listed apart in the source
Text: as §1, §2

[14] = tested on: Phalaris minor; assay: Post-emergence herbicidal action against Phalaris minor; remark: listed apart in the source
Text: as §1, §2

[15] = post-emergence, 14 DAT, 1 g of a.i./ha
[16] = post-emergence, 14 DAT, 3 g of a.i./ha
[17] = post-emergence, 14 DAT, 9 g of a.i./ha

## Cc1nn(C)c(O)c1C(=O)c1ccc(C(F)(F)F)cc1S(C)(=O)=O [(B4.22) Pyrasulfotole]
[1]; 5 g of a.i./ha
  Herbicidal action in [%] 14 DAT against Poa annua L.: 0%
  Herbicidal action in [%] 28 DAT against Poa annua L.: 0%
[1]; 15 g of a.i./ha
  Herbicidal action in [%] 14 DAT against Poa annua L.: 0%
  Herbicidal action in [%] 28 DAT against Poa annua L.: 0%
[1]; 45 g of a.i./ha
  Herbicidal action in [%] 14 DAT against Poa annua L.: 0%
  Herbicidal action in [%] 28 DAT against Poa annua L.: 0%
[2]; 5 g of a.i./ha
  Herbicidal action in [%] 14 DAT against Lolium rigidum: 0%
  Herbicidal action in [%] 28 DAT against Lolium rigidum: 0%
[2]; 15 g of a.i./ha
  Herbicidal action in [%] 14 DAT against Lolium rigidum: 5%
  Herbicidal action in [%] 28 DAT against Lolium rigidum: 0%
[2]; 45 g of a.i./ha
  Herbicidal action in [%] 14 DAT against Lolium rigidum: 5%
  Herbicidal action in [%] 28 DAT against Lolium rigidum: 10%
[3]; 5 g of a.i./ha
  Herbicidal action in [%] 14 DAT against Bromus sterilis: 0%
[3]; 15 g of a.i./ha
  Herbicidal action in [%] 14 DAT against Bromus sterilis: 0%
[3]; 45 g of a.i./ha
  Herbicidal action in [%] 14 DAT against Bromus sterilis: 10%
[4]; 5 g of a.i./ha
  Herbicidal action in [%] 14 DAT against Phalaris minor: 0%
  Herbicidal action in [%] 28 DAT against Phalaris minor: 0%
[4]; 15 g of a.i./ha
  Herbicidal action in [%] 14 DAT against Phalaris minor: 0%
  Herbicidal action in [%] 28 DAT against Phalaris minor: 0%
[5]; 5 g of a.i./ha
  Herbicidal action in [%] 28 DAT against Centaurea cyanus: 0%
[5]; 15 g of a.i./ha
  Herbicidal action in [%] 14 DAT against Centaurea cyanus: 10%
  Herbicidal action in [%] 28 DAT against Centaurea cyanus: 0%
[5]; 45 g of a.i./ha
  Herbicidal action in [%] 14 DAT against Centaurea cyanus: 30%
  Herbicidal action in [%] 28 DAT against Centaurea cyanus: 20%
[6]; 5 g of a.i./ha
  Herbicidal action in [%] 14 DAT against Lolium rigidum (resistant biotype): 5%
  Herbicidal action in [%] 28 DAT against Lolium rigidum (resistant biotype): 0%
[6]; 15 g of a.i./ha
  Herbicidal action in [%] 14 DAT against Lolium rigidum (resistant biotype): 5%
  Herbicidal action in [%] 28 DAT against Lolium rigidum (resistant biotype): 0%
[6]; 45 g of a.i./ha
  Herbicidal action in [%] 14 DAT against Lolium rigidum (resistant biotype): 10%
[7]; 5 g of a.i./ha
  Herbicidal action in [%] 14 DAT against Matricaria inodora: 20%
  Herbicidal action in [%] 28 DAT against Matricaria inodora: 10%
[8]; 5 g of a.i./ha
  Herbicidal action in [%] 14 DAT against Alopecurus myosuroides: 0%
  Herbicidal action in [%] 28 DAT against Alopecurus myosuroides: 0%
[8]; 15 g of a.i./ha
  Herbicidal action in [%] 14 DAT against Alopecurus myosuroides: 0%
  Herbicidal action in [%] 28 DAT against Alopecurus myosuroides: 0%
[8]; 45 g of a.i./ha
  Herbicidal action in [%] 14 DAT against Alopecurus myosuroides: 10%
  Herbicidal action in [%] 28 DAT against Alopecurus myosuroides: 10%

## COc1c(Cl)ccc(-c2cc(N)c(Cl)c(C(=O)O)n2)c1F [(B5.31) Halauxifen]
[1]; [15]
  Herbicidal action in [%] 14 DAT against Poa annua L.: 0%
[1]; [16]
  Herbicidal action in [%] 14 DAT against Poa annua L.: 0%
[1]; [17]
  Herbicidal action in [%] 14 DAT against Poa annua L.: 5%
[1]; post-emergence, 28 DAT, 1 g of a.i./ha
  Herbicidal action in [%] 28 DAT against Poa annua L.: 0%
[1]; post-emergence, 28 DAT, 3 g of a.i./ha
  Herbicidal action in [%] 28 DAT against Poa annua L.: 0%
[1]; post-emergence, 28 DAT, 9 g of a.i./ha
  Herbicidal action in [%] 28 DAT against Poa annua L.: 0%
[9]; 3 g of a.i./ha
  Herbicidal action in [%] 14 DAT against Veronica hederifolia: 60%
[9]; 9 g of a.i./ha
  Herbicidal action in [%] 14 DAT against Veronica hederifolia: 60%
[10]; 1 g of a.i./ha
  Herbicidal action in [%] 14 DAT against Bromus sterilis: 0%
  Herbicidal action in [%] 28 DAT against Bromus sterilis: 0%
[10]; 3 g of a.i./ha
  Herbicidal action in [%] 14 DAT against Bromus sterilis: 10%
  Herbicidal action in [%] 28 DAT against Bromus sterilis: 0%
[10]; 9 g of a.i./ha
  Herbicidal action in [%] 14 DAT against Bromus sterilis: 30%
  Herbicidal action in [%] 28 DAT against Bromus sterilis: 20%
[11]; 1 g of a.i./ha
  Herbicidal action in [%] 14 DAT against Lolium rigidum: 0%
  Herbicidal action in [%] 28 DAT against Lolium rigidum: 0%
[11]; 3 g of a.i./ha
  Herbicidal action in [%] 14 DAT against Lolium rigidum: 0%
  Herbicidal action in [%] 28 DAT against Lolium rigidum: 0%
[11]; 9 g of a.i./ha
  Herbicidal action in [%] 14 DAT against Lolium rigidum: 5%
  Herbicidal action in [%] 28 DAT against Lolium rigidum: 0%
[12]; 1 g of a.i./ha
  Herbicidal action in [%] 14 DAT against Alopecurus myosuroides: 0%
  Herbicidal action in [%] 28 DAT against Alopecurus myosuroides: 0%
[12]; 3 g of a.i./ha
  Herbicidal action in [%] 14 DAT against Alopecurus myosuroides: 0%
  Herbicidal action in [%] 28 DAT against Alopecurus myosuroides: 0%
[12]; 9 g of a.i./ha
  Herbicidal action in [%] 14 DAT against Alopecurus myosuroides: 5%
  Herbicidal action in [%] 28 DAT against Alopecurus myosuroides: 0%
[13]; 1 g of a.i./ha
  Herbicidal action in [%] 14 DAT against Lolium rigidum (resistant biotype): 0%
  Herbicidal action in [%] 28 DAT against Lolium rigidum (resistant biotype): 0%
[13]; 3 g of a.i./ha
  Herbicidal action in [%] 14 DAT against Lolium rigidum (resistant biotype): 0%
  Herbicidal action in [%] 28 DAT against Lolium rigidum (resistant biotype): 0%
[13]; 9 g of a.i./ha
  Herbicidal action in [%] 14 DAT against Lolium rigidum (resistant biotype): 5%
  Herbicidal action in [%] 28 DAT against Lolium rigidum (resistant biotype): 10%
[14]; 1 g of a.i./ha
  Herbicidal action in [%] 14 DAT against Phalaris minor: 0%
  Herbicidal action in [%] 28 DAT against Phalaris minor: 0%
[14]; 3 g of a.i./ha
  Herbicidal action in [%] 14 DAT against Phalaris minor: 0%
  Herbicidal action in [%] 28 DAT against Phalaris minor: 0%
[14]; 9 g of a.i./ha
  Herbicidal action in [%] 14 DAT against Phalaris minor: 5%
  Herbicidal action in [%] 28 DAT against Phalaris minor: 5%
[7]; [15]
  Herbicidal action in [%] 14 DAT against Matricaria inodora: 30%
[7]; [16]
  Herbicidal action in [%] 14 DAT against Matricaria inodora: 40%
[7]; [17]
  Herbicidal action in [%] 14 DAT against Matricaria inodora: 60%
